The values below come from patent US9212161B2, “Chiral synthesis of pyrrolidine core compounds en route to neuronal nitric oxide synthase inhibitors” (Northwestern University, priority 2010, dated 2015).

The test concerns rabbit fetuses. As to the kind of experiment: animal tests, rabbit fetuses under hypoxic conditions. The class given is in vivo.

For `Cc1cc(N)nc(C[C@@H]2CNC[C@@H]2OCCNCCc2cccc(F)c2)c1` [Compound 1], the “neurological damage to rabbit fetuses” value is on record as “remarkable reduction in neurological damage”.
